Here are results for 38 compounds from ChEMBL document CHEMBL4483862, “Open-source discovery of chemical leads for next-generation chemoprotective antimalarials” (2018).

The assay relates to Plasmodium berghei. In words: Luciferase/luciferin-expressing antifolate-resistant parasites were used to infect a culture of HepG2 cells that were pre-incubated with compounds. Infected hepatocytes emit light due to the luciferase reaction. Assay results are presented as the percent inhibition of light emission compared to control. […]. The assay is classed as functional. As to conditions: sporozoite; for IC90: read-out: LUCIFERASE INFECTION ASSAY - IC90.

Setting [1] is: read-out: LUCIFERASE INFECTION ASSAY - IC50.

SMILES strings stand for the structures.

By IC50 is commonly meant the concentration needed to halve the response being measured. One may read the IC90 as the point of the concentration-response curve where the effect stands at 90%. Take `c1cncc(-c2cnc3ccc(-c4ccoc4)nn23)c1`: the IC90 is > 10 µM. The half-inhibitory concentration (IC50) (HEPG2TOX_HILL_SLOPE 0.706, HEPG2TOX_R_SQUARED 0.847, PBLUC_HILL_SLOPE 1.15, PBLUC_R_SQUARED 0.722, read-out: LUCIFERASE INFECTION ASSAY - IC50) is 1.63 µM.

`Cc1nn(CC(=O)NNC(=O)CC23CC4CC(CC(C4)C2)C3)c(=O)c2ccccc12`: the IC90 came out at 6.96 µM. Further, under “PBLUC_HILL_SLOPE 1.76, PBLUC_R_SQUARED 0.72, read-out: LUCIFERASE INFECTION ASSAY - IC50”, the IC50 came out at 2 µM.

On to `O=C(O)c1c2c(nc3ccccc13)/C(=C/c1ccc(OC(F)F)cc1)CC2`, for which the 90% effect concentration (IC90) is > 10 µM. The IC50 (PBLUC_HILL_SLOPE 0.722, PBLUC_R_SQUARED 0.387, read-out: LUCIFERASE INFECTION ASSAY - IC50) stood at 5.43 µM.

On to `C=S(=O)(NS(=O)(=O)c1ccc(-c2cc(C(F)(F)F)n(C)n2)s1)c1ccc(Cl)cc1` (stereo unspecified), for which the IC90 is > 6.82 µM. Under setting [1], the concentration for half-maximal inhibition (IC50) is > 6.82 µM.

Regarding `CCC(C)N1C(=O)Cc2c1nc(N)c1c(N)nc(N3CC(C)OC(C)C3)c(C#N)c21` (stereo unspecified), the 90% effect concentration (IC90) is > 10 µM. Under setting [1], the half-inhibitory concentration (IC50) was > 10 µM.

In the case of `NC(c1ccccc1)c1csc(Nc2ccc(-c3ccccc3)nn2)n1` (stereo unspecified), the IC90 turned out to be 3.73 µM. For the setting “PBLUC_HILL_SLOPE 11.1, PBLUC_R_SQUARED 0.371, read-out: LUCIFERASE INFECTION ASSAY - IC50”, the IC50 stood at 3.06 µM.

As to `Cc1cc(C(=O)N/N=C/c2c(-c3ccccc3)nc3ccccn23)c(C)o1`, the IC90 was > 10 µM. Also, the IC50 (PBLUC_HILL_SLOPE 2.6, PBLUC_R_SQUARED 0.44, read-out: LUCIFERASE INFECTION ASSAY - IC50) came out at 6.44 µM.

For the compound `O=C(OC1CCCCC1)c1ccc(NC(=O)C2CCCCC2)cc1`, the concentration for an effect of 90% (IC90) is > 10 µM. Under “PBLUC_HILL_SLOPE 6.21, PBLUC_R_SQUARED 0.113, read-out: LUCIFERASE INFECTION ASSAY - IC50”, the 50% inhibitory concentration (IC50) was determined as 9.48 µM.

As for `CCc1sc(C(=O)Nc2nc(-c3ccc(CNC(C)=O)cc3)cs2)cc1C`, the concentration for an effect of 90% (IC90) is > 10 µM. In addition, the IC50 under setting [1] was > 10 µM.

As to `O=C(Nc1ncccc1O)c1ccc(S(=O)(=O)NCc2ccco2)cc1`, the IC90 is > 10 µM. In addition, the IC50 (PBLUC_HILL_SLOPE 0.839, PBLUC_R_SQUARED 0.334, read-out: LUCIFERASE INFECTION ASSAY - IC50) was determined as 1.04 µM.

`CN(C)c1cccc(-c2cnc3cnc(-c4cnn(C)c4)cn23)c1`: the IC90 was > 10.4 µM. Moreover, the IC50 (PBLUC_HILL_SLOPE 12.7, PBLUC_R_SQUARED 0.283, read-out: LUCIFERASE INFECTION ASSAY - IC50) was 8.89 µM.

In the case of `O=C(/C=C/c1cccc(NC(=O)C(F)(F)F)c1)c1cc2ccccc2o1`, the concentration for an effect of 90% (IC90) is 5.08 µM. Further, the IC50 (HEPG2TOX_HILL_SLOPE 11, HEPG2TOX_R_SQUARED 0.396, PBLUC_HILL_SLOPE 8.92, PBLUC_R_SQUARED 0.395, read-out: LUCIFERASE INFECTION ASSAY - IC50) came out at 3.97 µM.

For `CN(C)CCNc1cc(-c2cccs2)nc2ccccc12`, the IC90 was 4.22 µM. The IC50 (HEPG2TOX_HILL_SLOPE 9.05, HEPG2TOX_R_SQUARED 0.795, PBLUC_HILL_SLOPE 12.9, PBLUC_R_SQUARED 0.598, read-out: LUCIFERASE INFECTION ASSAY - IC50) amounted to 3.56 µM.

In the case of `COc1cccc(/N=C2\SCC(C)(C)N2C(=O)c2ccccc2OCc2ccccc2C)c1`, the concentration for an effect of 90% (IC90) is > 10 µM. For the same compound, the half-maximal inhibitory concentration (IC50) (HEPG2TOX_HILL_SLOPE 1.35, HEPG2TOX_R_SQUARED 0.857, read-out: LUCIFERASE INFECTION ASSAY - IC50) was > 10 µM.

For `O=C(Nc1nn[nH]n1)c1ccc(S(=O)(=O)N2CCCCCC2)cc1`, the IC90 came out at 9.99 µM. Moreover, the half-maximal inhibitory concentration (IC50) (PBLUC_HILL_SLOPE 18.6, PBLUC_R_SQUARED 0.124, read-out: LUCIFERASE INFECTION ASSAY - IC50) was determined as 8.88 µM.

For `CN(C)c1ccc(C(=O)Nc2cnc3ccccc3c2)cc1`, the concentration for an effect of 90% (IC90) was > 10 µM. Moreover, the IC50 (FFLUC_HILL_SLOPE 4.08, FFLUC_R_SQUARED 0.429, HEPG2TOX_HILL_SLOPE 2.09, HEPG2TOX_R_SQUARED 0.742, PBLUC_HILL_SLOPE 0.628, PBLUC_R_SQUARED 0.448, read-out: LUCIFERASE INFECTION ASSAY - IC50) was 0.554 µM.

For the compound `COC(=O)c1c(C)[nH]c(C(=O)N2CCCN(Cc3ccc(C(F)(F)F)cc3)CC2)c1C`, the IC90 worked out at 3.51 µM. Further, the IC50 (HEPG2TOX_HILL_SLOPE 0.883, HEPG2TOX_R_SQUARED 0.94, PBLUC_HILL_SLOPE 33.9, PBLUC_R_SQUARED 0.31, read-out: LUCIFERASE INFECTION ASSAY - IC50) was 3.29 µM.

Regarding `Cc1ccc2c(C)cc(Sc3nc4ccccc4s3)nc2c1`, the IC90 is > 10 µM. For the same compound, under setting [1], the IC50 was > 10 µM.

For `Cc1oc2c(c1C(=O)N1CCN(c3ccc(F)cc3)CC1)C(=O)c1ccccc1C2=O`, the 90% effect concentration (IC90) is > 10 µM. Besides, where the note is “PBLUC_HILL_SLOPE 2.38, PBLUC_R_SQUARED 0.395, read-out: LUCIFERASE INFECTION ASSAY - IC50”, the 50% inhibitory concentration (IC50) came out at 4.13 µM.

Consider `FC(F)(F)c1ccc(Nc2ccc3c(c2)CCC3)nc1`, for which the IC90 is > 10 µM. Further, the IC50 under setting [1] is > 10 µM.

Consider `Cc1nnc(Sc2ncc([N+](=O)[O-])s2)n1-c1ccc(OCc2ccccc2)cc1`, for which the concentration for an effect of 90% (IC90) is > 7.76 µM. Besides, the IC50 under setting [1] was > 7.76 µM.

Turning to `CCCn1c(-c2ccccc2)nc2c(c(=O)c3ccccc3n2C)c1=O`, the IC90 worked out at 3.93 µM. Also, under setting [1], the IC50 is 3.2 µM.

For `CC(=O)N1CCc2cc(NC(=O)C3CCN(c4ccc(C#N)cn4)CC3)ccc21`, the IC90 was > 10 µM. In addition, the IC50 (PBLUC_HILL_SLOPE 2.56, PBLUC_R_SQUARED 0.25, read-out: LUCIFERASE INFECTION ASSAY - IC50) is > 10 µM.

`CCN(CC)S(=O)(=O)c1cccc(NC(=O)c2sc(Nc3ccc(C)cc3C)c(C(=O)NC(C)COC)c2N)c1` (stereo unspecified): the IC90 was > 10 µM. In addition, for the setting “FFLUC_HILL_SLOPE 0.973, FFLUC_R_SQUARED 0.376, read-out: LUCIFERASE INFECTION ASSAY - IC50”, the IC50 is > 10 µM.

`CCOC(=O)c1c(S(=O)(=O)Nc2cccc([N+](=O)[O-])c2)c(-c2ccccc2)n(-c2ccccc2)c1C`: the IC90 was > 6.53 µM. Under setting [1], the IC50 is > 6.53 µM.

With `Cc1ccc(S(=O)(=O)Nc2ccc(Nc3nccn4c(-c5ccc(F)cc5)cnc34)cc2)cc1`, the IC90 came to 4.49 µM. Moreover, the IC50 (PBLUC_HILL_SLOPE 1.86, PBLUC_R_SQUARED 0.706, read-out: LUCIFERASE INFECTION ASSAY - IC50) stood at 1.37 µM.

`CC(NC(=O)c1cc(-c2ccc3c(c2)OCCO3)nc2c1cnn2C(C)C)c1nc2ccccc2[nH]1` (stereo unspecified): the concentration for an effect of 90% (IC90) was > 10 µM. Where the note is “PBLUC_HILL_SLOPE 1.49, PBLUC_R_SQUARED 0.0633, read-out: LUCIFERASE INFECTION ASSAY - IC50”, the half-maximal inhibitory concentration (IC50) was > 10 µM.

Regarding `Cc1cccc(NC(=O)N2CCC3(CC2)OCc2cc(-c4ccc(OC(F)(F)F)cc4)ccc2O3)c1`, the IC90 was > 6.62 µM. Also, the IC50 under setting [1] is > 6.62 µM.

With `CC(=O)Nc1cccc2c1CCN(c1ncnc3sccc13)C2`, the concentration for an effect of 90% (IC90) is 3.46 µM. Also, the 50% inhibitory concentration (IC50) (PBLUC_HILL_SLOPE 34.6, PBLUC_R_SQUARED 0.49, read-out: LUCIFERASE INFECTION ASSAY - IC50) is 3.25 µM.

`Fc1cccc(-c2nccc3n[nH]c(-c4cccc(OC(F)(F)F)c4)c23)c1`: the IC90 was > 10 µM. Moreover, the IC50 (PBLUC_HILL_SLOPE 1.45, PBLUC_R_SQUARED 0.246, read-out: LUCIFERASE INFECTION ASSAY - IC50) worked out at 5.34 µM.

Consider `Clc1ccc(Nc2nccc3c2ncn3Cc2ccccc2)cc1`, for which the IC90 is > 10 µM. Further, the half-inhibitory concentration (IC50) (HEPG2TOX_HILL_SLOPE 10.4, HEPG2TOX_R_SQUARED 0.978, PBLUC_HILL_SLOPE 0.755, PBLUC_R_SQUARED 0.638, read-out: LUCIFERASE INFECTION ASSAY - IC50) came to 0.827 µM.

Consider `O=C(Nc1ccc2nc(-c3ccccc3Cl)[nH]c2c1)c1ccc(=O)[nH]n1`, for which the IC90 stood at 4.84 µM. Where the note is “HEPG2TOX_HILL_SLOPE 0.281, HEPG2TOX_R_SQUARED 0.366, PBLUC_HILL_SLOPE 7.23, PBLUC_R_SQUARED 0.542, read-out: LUCIFERASE INFECTION ASSAY - IC50”, the half-inhibitory concentration (IC50) was 3.58 µM.

For `OCc1ccc(-c2cnc3cnc(-c4ccccc4Cl)cn23)cc1`, the IC90 is 9.11 µM. Also, the IC50 (HEPG2TOX_HILL_SLOPE 2.47, HEPG2TOX_R_SQUARED 0.702, PBLUC_HILL_SLOPE 3.47, PBLUC_R_SQUARED 0.368, read-out: LUCIFERASE INFECTION ASSAY - IC50) amounted to 4.84 µM.

As for `N#C/C(=N\Nc1ccc(Cl)cc1)C(=O)c1ccsc1`, the 90% effect concentration (IC90) was > 11.4 µM. The concentration for half-maximal inhibition (IC50) under setting [1] was > 11.4 µM.

As for `CC1CC(OCC(O)CN2CCN(c3ccc(F)cc3)CC2)CC(C)(C)C1` (stereo unspecified), the 90% effect concentration (IC90) is > 7.31 µM. Where the note is “FFLUC_HILL_SLOPE 15.4, FFLUC_R_SQUARED 0.216, PBLUC_HILL_SLOPE 1.14, PBLUC_R_SQUARED 0.115, read-out: LUCIFERASE INFECTION ASSAY - IC50”, the 50% inhibitory concentration (IC50) was > 7.31 µM.

As to `CCN(CC)Cc1nc(Oc2ccc(C)cc2OC)c2c(C)c(C)sc2n1`, the IC90 was > 10 µM. For the same compound, the IC50 (HEPG2TOX_HILL_SLOPE 7.2, HEPG2TOX_R_SQUARED 0.121, read-out: LUCIFERASE INFECTION ASSAY - IC50) was > 10 µM.

With `O=C(Nc1cc(C(F)(F)F)cc(C(F)(F)F)c1)Nc1cc(C(F)(F)F)cc(C(F)(F)F)c1`, the 90% effect concentration (IC90) was > 6.81 µM. Besides, under setting [1], the half-maximal inhibitory concentration (IC50) is > 6.81 µM.

In the case of `CN(C)S(=O)(=O)c1ccc(CNc2ccnc3cc(Cl)ccc23)s1`, the IC90 worked out at 3.6 µM. Where the note is “PBLUC_HILL_SLOPE 38.6, PBLUC_R_SQUARED 0.0785, read-out: LUCIFERASE INFECTION ASSAY - IC50”, the IC50 turned out to be 3.4 µM.
